Measurements as given in article PMC11488110 (Theranostics, 2024).
“Also recorded” adds a separate entry of the source.

Assays:
[1] = system: C57BL/6N mice with scopolamine-induced cognitive impairment; experiment: Scopolamine-induced memory impairment mouse model; assay type: in vivo
[2] = system: Salmonella typhimurium TA98; experiment: Ames MPF mutagenicity assay, TA98; assay type: cell-based
Protocol: An Ames microplate format (MPF) 98/100 mutagenesis assay kit (Xenometrix) was used to test mutagenic activity. The TA98 / TA100 Salmonella strain was inoculated into the bacterial culture medium and cultured overnight. The Salmonella test strain was then exposed to six concentrations of the test compound (plus positive and negative controls). Samples were prepared in 96-well plates in sterile DMSO. The cultured bacteria, test compound, and S9 mixture were incubated for 90 min at 37 °C in a shaking incubator. The mixture was then treated with an indicator medium and dispensed into 384-well plates. The plates were incubated at 37 °C for 48 h. The number of wells containing revertant colonies was counted for each dose.
Ta b l e S4 . Tw o -strain Ames mutagenic assess ment of 5a.
Straina Activity in the absence (-) of S9b Activity in the presence (+) of S9b TA 9 8 Negative (-) Negative (-)
TA 1 0 0 Negative (-) Negative (-) aSalmonella typhimurium strains TA98 (hi s D3052 mutation) and TA100 (hisG46 mutation) were used to detect frameshift mutations and base- pair substitution mutations, respectively. bAroclor 1254- induced rat liver S9 fraction for exogenous metabolic activation.

hPPARγ = biological target: T1, hPPARγ (Homo sapiens, UniProt P37231); experiment: In vitro co-transfection (PPRE-luciferase) assay in CV-1 cells, hPPARγ; assay type: cell-based; details: 24 h, read-out: Potency (EC50) hPPARγ
T1 sequence (P37231 1-505): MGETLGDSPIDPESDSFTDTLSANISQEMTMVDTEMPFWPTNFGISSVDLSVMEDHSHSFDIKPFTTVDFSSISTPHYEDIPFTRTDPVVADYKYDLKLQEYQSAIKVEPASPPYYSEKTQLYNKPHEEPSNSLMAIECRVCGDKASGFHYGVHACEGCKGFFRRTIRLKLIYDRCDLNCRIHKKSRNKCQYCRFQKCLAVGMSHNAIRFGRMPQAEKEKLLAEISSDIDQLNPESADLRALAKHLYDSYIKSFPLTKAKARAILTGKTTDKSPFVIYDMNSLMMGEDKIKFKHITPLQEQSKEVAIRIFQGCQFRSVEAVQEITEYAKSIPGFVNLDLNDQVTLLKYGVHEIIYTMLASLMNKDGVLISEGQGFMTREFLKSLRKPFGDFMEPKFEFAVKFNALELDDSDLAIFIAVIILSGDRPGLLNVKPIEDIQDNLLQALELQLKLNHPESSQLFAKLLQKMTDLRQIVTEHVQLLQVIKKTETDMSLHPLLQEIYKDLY

[3] = system: C57BL/6N mice with LPS-induced neuroinflammation; experiment: LPS-induced neuroinflammation mouse model; assay type: in vivo
[4] = 30 mg/kg/day p.o. 5 days before scopolamine 1 mg/kg i.p.
[5] = 30 mg/kg p.o. 10 days, LPS 0.3 mg/kg 7 days
[6] = 30 mg/kg/day p.o., LPS 0.3 mg/kg/day i.p.

## Cc1cc(SCc2[se]c(-c3ccc(C(F)(F)F)cc3)nc2C)ccc1OCC(=O)O [Compound 5a, {2-Methyl-4-[4-methyl-2-(4-trifluoromethyl-phenyl)-selenazol-5-yl-methylsulfanyl]-phenoxy}-acetic acid]
[1]; [4]
  Y-maze spontaneous alternation: prevented the decrease in alternation percentage
  Y-maze total number of arm entries: without inducing any changes
[1]; 30 mg/kg/day p.o., scopolamine 1 mg/kg i.p.
  Passive avoidance step-through latency: mitigated this effect
[1]; post-administration, 10 mg/kg p.o.
  Memory in Y-maze, passive avoidance and Morris water maze: significantly restored the memory impairment
[1]; post-administration, 30 mg/kg p.o.
  Memory in Y-maze, passive avoidance and Morris water maze: maximum efficacy
[1]; post-administration, same dose 30 mg/kg
  Cognitive improvement compared with GW501516: superior in vivo efficacy
[2]; TA98, with rat liver S9
  Ames mutagenic activity in the presence (+) of S9: Negative (-); also recorded: lacks mutagenicity
[2]; TA98, without S9
  Ames mutagenic activity in the absence (-) of S9: Negative (-); also recorded: lacks mutagenicity
hPPARγ
  EC50: > 10 µM
[3]; [5]
  CD86 expression in IBA1-positive microglia: significantly reduced the expression
  GFAP and IBA1 immunoreactivity, hippocampus and cortex: inhibited
  Plasma TNF-α and IL-6: prevented the LPS-induced increases
  Spleen size and weight: reduced the size and weight of spleens
[3]; [6]
  Open-field motor activity (traveled distance, immobility time): improved motor activity
  Open-field time spent in the center: spent more time in the center
  Passive avoidance step-through latency: significantly prevented this decrease
  Y-maze number of arm entries: increased the number of arm entries
  Y-maze spontaneous alternation: higher percentage of spontaneous alternations
